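Cells were grown in 96-well plates and exposed to each compound for 48 hours at five concentrations; endpoints were interpolated linearly between bracketing concentrations, or set to the highest concentration if not reached. Here, GI50 denotes the concentration required for 50% inhibition of growth. Definition used: TGI = concentration required for complete inhibition of growth.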
Legend:
Assay in all cases: inhibition of tumour cell growth, NCI panel, 48 h
IGROV1 ovarian = tested on: IGROV1 ovarian
PC-3 prostate = tested on: PC-3 prostate
SR leukemia = tested on: SR leukemia
SF-539 CNS = tested on: SF-539 CNS
MDA-MB-231 breast = tested on: MDA-MB-231 breast
HCT-15 colon = tested on: HCT-15 colon
LOX IMVI melanoma = tested on: LOX IMVI melanoma
U251 CNS = tested on: U251 CNS
T-47D breast = tested on: T-47D breast
SK-OV-3 ovarian = tested on: SK-OV-3 ovarian
SK-MEL-28 melanoma = tested on: SK-MEL-28 melanoma
786-0 renal = tested on: 786-0 renal
KM12 colon = tested on: KM12 colon
HCC-2998 colon = tested on: HCC-2998 colon
BT-549 breast = tested on: BT-549 breast
NCI-H460 lung = tested on: NCI-H460 lung
A549 NSCLC = tested on: A549 NSCLC
RXF 393 renal = tested on: RXF 393 renal
CCRF-CEM leukemia = tested on: CCRF-CEM leukemia
OVCAR-3 ovarian = tested on: OVCAR-3 ovarian
M14 melanoma = tested on: M14 melanoma
OVCAR-5 ovarian = tested on: OVCAR-5 ovarian
HL-60(TB) leukemia = tested on: HL-60(TB) leukemia
MOLT-4 leukemia = tested on: MOLT-4 leukemia
HS 578T breast = tested on: HS 578T breast
OVCAR-4 ovarian = tested on: OVCAR-4 ovarian
SN12C renal = tested on: SN12C renal
HCT-116 colon = tested on: HCT-116 colon
A498 renal = tested on: A498 renal
HT29 colon = tested on: HT29 colon
SW-620 colon = tested on: SW-620 colon
MCF7 breast = tested on: MCF7 breast
HOP-92 NSCLC = tested on: HOP-92 NSCLC
UACC-62 melanoma = tested on: UACC-62 melanoma
SK-MEL-2 melanoma = tested on: SK-MEL-2 melanoma
ACHN renal = tested on: ACHN renal
HOP-62 NSCLC = tested on: HOP-62 NSCLC
SNB-75 CNS = tested on: SNB-75 CNS
DU-145 prostate = tested on: DU-145 prostate
NCI-H522 lung = tested on: NCI-H522 lung
UACC-257 melanoma = tested on: UACC-257 melanoma
TK-10 renal = tested on: TK-10 renal
NCI-H226 lung = tested on: NCI-H226 lung
RPMI-8226 leukemia = tested on: RPMI-8226 leukemia
UO-31 renal = tested on: UO-31 renal
EKVX NSCLC = tested on: EKVX NSCLC
SNB-19 CNS = tested on: SNB-19 CNS
SK-MEL-5 melanoma = tested on: SK-MEL-5 melanoma
SF-295 CNS = tested on: SF-295 CNS
MALME-3M melanoma = tested on: MALME-3M melanoma
MDA-MB-435 = tested on: MDA-MB-435
SF-268 CNS = tested on: SF-268 CNS
COLO 205 colon = tested on: COLO 205 colon
CAKI-1 renal = tested on: CAKI-1 renal

For `CCN(CC)c1ccc(NC2=C(Cl)C(=O)c3nc(C)ccc3C2=O)cc1`, the GI50 (IGROV1 ovarian) was 2.11 µM, the TGI (IGROV1 ovarian) was 4.31 µM and the GI50 (PC-3 prostate) was 1.8 µM. The TGI (PC-3 prostate) was 3.66 µM, the GI50 (SR leukemia) was 0.643 µM and the TGI (SR leukemia) was 3.67 µM. It also gave a GI50 (SF-539 CNS) of 1.82 µM, a TGI (SF-539 CNS) of 3.38 µM and a GI50 (MDA-MB-231 breast) of 1.89 µM. For the same molecule, the TGI (MDA-MB-231 breast) was 3.69 µM, the GI50 (HCT-15 colon) was 1.63 µM and the TGI (HCT-15 colon) was 3.34 µM. For the same molecule, the GI50 (LOX IMVI melanoma) was 1.67 µM, the TGI (LOX IMVI melanoma) was 3.5 µM and the GI50 (U251 CNS) was 1.87 µM. The TGI (U251 CNS) was 3.57 µM, the GI50 (T-47D breast) was 1.96 µM and the TGI (T-47D breast) was 5.46 µM. For the same molecule, the GI50 (SK-OV-3 ovarian) was 2.2 µM, the TGI (SK-OV-3 ovarian) was 6.57 µM and the GI50 (SK-MEL-28 melanoma) was 2.04 µM. It also gave a TGI (SK-MEL-28 melanoma) of 3.68 µM, a GI50 (786-0 renal) of 1.87 µM and a TGI (786-0 renal) of 3.55 µM. The GI50 (KM12 colon) was 2.42 µM, the TGI (KM12 colon) was 5.88 µM and the GI50 (HCC-2998 colon) was 1.89 µM. It also gave a TGI (HCC-2998 colon) of 3.55 µM, a GI50 (BT-549 breast) of 1.58 µM and a TGI (BT-549 breast) of 2.96 µM. The GI50 (NCI-H460 lung) was 5.38 µM, the TGI (NCI-H460 lung) was 23.2 µM and the GI50 (A549 NSCLC) was 2.61 µM. The TGI (A549 NSCLC) was 7.05 µM, the GI50 (RXF 393 renal) was 1.63 µM and the TGI (RXF 393 renal) was 3.02 µM. It also gave a GI50 (CCRF-CEM leukemia) of 2.27 µM, a TGI (CCRF-CEM leukemia) of 6.43 µM and a GI50 (OVCAR-3 ovarian) of 1.81 µM. It also gave a TGI (OVCAR-3 ovarian) of 3.3 µM, a GI50 (M14 melanoma) of 1.73 µM and a TGI (M14 melanoma) of 3.3 µM. It also gave a GI50 (OVCAR-5 ovarian) of 2.12 µM, a TGI (OVCAR-5 ovarian) of 4.1 µM and a GI50 (HL-60(TB) leukemia) of 1.55 µM. The TGI (HL-60(TB) leukemia) was 4.1 µM, the GI50 (MOLT-4 leukemia) was 1.91 µM and the TGI (MOLT-4 leukemia) was 5.43 µM. The GI50 (HS 578T breast) was 2.38 µM, the TGI (HS 578T breast) was 6.37 µM and the GI50 (OVCAR-4 ovarian) was 1.82 µM. For the same molecule, the TGI (OVCAR-4 ovarian) was 3.52 µM, the GI50 (SN12C renal) was 1.95 µM and the TGI (SN12C renal) was 4.35 µM. The GI50 (HCT-116 colon) was 1.75 µM, the TGI (HCT-116 colon) was 3.63 µM and the GI50 (A498 renal) was 11.9 µM. It also gave a TGI (A498 renal) of 24.5 µM, a GI50 (HT29 colon) of 2.66 µM and a TGI (HT29 colon) of 6.76 µM. For the same molecule, the GI50 (SW-620 colon) was 2.18 µM, the TGI (SW-620 colon) was 4.74 µM and the GI50 (MCF7 breast) was 1.94 µM. The TGI (MCF7 breast) was 5.04 µM, the GI50 (HOP-92 NSCLC) was 1.71 µM and the TGI (HOP-92 NSCLC) was 3.41 µM. The GI50 (UACC-62 melanoma) was 1.63 µM, the TGI (UACC-62 melanoma) was 3.13 µM and the GI50 (SK-MEL-2 melanoma) was 1.85 µM. For the same molecule, the TGI (SK-MEL-2 melanoma) was 3.48 µM, the GI50 (ACHN renal) was 1.93 µM and the TGI (ACHN renal) was 3.43 µM. It also gave a GI50 (HOP-62 NSCLC) of 3.21 µM, a TGI (HOP-62 NSCLC) of 12.2 µM and a GI50 (SNB-75 CNS) of 1.98 µM. The TGI (SNB-75 CNS) was 5.03 µM, the GI50 (DU-145 prostate) was 1.93 µM and the TGI (DU-145 prostate) was 3.51 µM. It also gave a GI50 (NCI-H522 lung) of 1.81 µM, a TGI (NCI-H522 lung) of 3.92 µM and a GI50 (UACC-257 melanoma) of 1.6 µM. For the same molecule, the TGI (UACC-257 melanoma) was 3 µM, the GI50 (TK-10 renal) was 2.05 µM and the TGI (TK-10 renal) was 3.51 µM. For the same molecule, the GI50 (NCI-H226 lung) was 2.27 µM, the TGI (NCI-H226 lung) was 5.6 µM and the GI50 (RPMI-8226 leukemia) was 2.52 µM. It also gave a TGI (RPMI-8226 leukemia) of 6.29 µM, a GI50 (UO-31 renal) of 1.54 µM and a TGI (UO-31 renal) of 2.93 µM. It also gave a GI50 (EKVX NSCLC) of 1.59 µM, a TGI (EKVX NSCLC) of 3.33 µM and a GI50 (SNB-19 CNS) of 1.77 µM. The TGI (SNB-19 CNS) was 3.35 µM, the GI50 (SK-MEL-5 melanoma) was 1.75 µM and the TGI (SK-MEL-5 melanoma) was 3.22 µM. For the same molecule, the GI50 (SF-295 CNS) was 1.97 µM, the TGI (SF-295 CNS) was 4.23 µM and the GI50 (MALME-3M melanoma) was 2.18 µM. For the same molecule, the TGI (MALME-3M melanoma) was 4.13 µM, the GI50 (MDA-MB-435) was 1.99 µM and the TGI (MDA-MB-435) was 3.87 µM. For the same molecule, the GI50 (SF-268 CNS) was 1.8 µM, the TGI (SF-268 CNS) was 3.53 µM and the GI50 (COLO 205 colon) was 1.92 µM. For the same molecule, the TGI (COLO 205 colon) was 3.82 µM, the GI50 (CAKI-1 renal) was 1.61 µM and the TGI (CAKI-1 renal) was 3.16 µM.

Reference: PubChem BioAssay (NCI)
